# Experimental data from patent US5789531A, “Peptide-based inhibitors of HIV replication” (Allex Biopharmaceuticals, Inc., priority 1995, dated 1998).
# Values joined by “and” are separate entries in the source; they are usually repeats but may differ in a detail not shown here. Equal values may be shown once. Read-outs that look alike come from different tables or passages of the source.
# What was measured:
# [1] = tested on: truncated functional form of TAR RNA (SEQ ID NO:13); assay: RNA gel mobility shift TAR-binding assay; parameters: species or system HIV; details: relative to tat (1-86) and the oligopeptide representing the tat basic domain
# Description: This assay generally involves the incubation of a selected oligopeptide with gel-purified, radio-labelled TAR RNA, or tat-binding fragment of TAR RNA, that has been produced either by direct synthesis or through transcription of a corresponding DNA template. Samples are loaded onto non-denaturing polyacrylamide gel and subjected to electrophoresis, and then migration of labelled RNA through the gel is visualized on gel-exposed, X-ray film. Oligopeptides which bind TAR are identified in this assay by their characteristic, retarded migration on the gel, relative to TAR RNA to which no oligopeptide has bound. In this mobility shift assay, oligopeptides having an "enhanced" affinity for binding TAR RNA will resolve on the gel as bands which, in addition to displaying the retarded migration pattern characteristic of TAR-binding oligopeptides, will also appear with greater intensity and/or size than a band containing TAR RNA bound to tat (1-86).
# (§1) TAR-binding affinity of the oligopeptides relative to HIV tat(1-86) and relative to tat fragments representing the tat basic domain, was evaluated by RNA gel mobility shift assay using as ligand a truncated functional form of TAR RNA having the sequence (SEQ ID NO:13) shown below.
# Synthesis of the TAR fragment and its variant analogue was accomplished as described by Roy et al. in Genes and Development, 1990, 4:1365. […]
# HIV (strain NL4-3) = type: cell-based; details: for PH Titers: HuT78 cells, 5 uM pretreatment, 10 uM after infection
# Excerpt: Controls used water in place of peptide.
# HuT78 cells = assay: Host cell replication in presence of peptide
# yeast tRNA = assay: TAR binding compared with yeast tRNA binding
# [2] = tested on: variant of TAR (SEQ ID NO:14) which does not bind tat; assay: RNA gel mobility shift assay with non-functional TAR variant (specificity); type: binding, HIV; details: functional TAR fragment vs non-functional TAR variant
# Description: as §1
# Synthesis of the TAR fragment and its variant analogue was accomplished as described by Roy et al. in Genes and Development, 1990, 4:1365. The TAR-binding assay was also performed in the manner reported by Roy et al, supra, which is incorporated herein by reference.
# tat = details: Green et al, Cell 1989, 58:215; cited from earlier work
molecule,measurement,setting,value
"CC(=O)N[C@H](CCCNC(=N)N)C(=O)N[C@H](CCCNC(=N)N)C(=O)N[C@H](CCCNC(=N)N)C(=O)N[C@H](CCCNC(=N)N)C(=O)N[C@H](CCCNC(=N)N)C(=O)N[C@H](CCCNC(=N)N)C(=O)N[C@H](CCCNC(=N)N)C(=O)N[C@H](CCCNC(=N)N)C(=O)N[C@H](CCCNC(=N)N)C(N)=O [4C, acetyl-[D-Arg]9 --NH2]",TAR-binding affinity,[1],TAR-binding affinity comparable to the basic domain of wild type tat
same,PH Titers,"HIV (strain NL4-3); 7 Day Pretreatment, Day 4 after infection, listed as 4C1",168.4 pg/mL and 98.08 pg/mL
same,PH Titers,"HIV (strain NL4-3); 7 Day Pretreatment, Day 4 after infection, listed as 4C2",131.5 pg/mL and 93.76 pg/mL
same,PH Titers,"HIV (strain NL4-3); 14 Day Pretreatment, Day 4 after infection, listed as 4C1",152.5 pg/mL
same,PH Titers,"HIV (strain NL4-3); 14 Day Pretreatment, Day 4 after infection, listed as 4C2",129.0 pg/mL
same,PH Titers,"HIV (strain NL4-3); 14 Day Pretreatment, Day 7 after infection, listed as 4C1",175.1 pg/mL
same,PH Titers,"HIV (strain NL4-3); 14 Day Pretreatment, Day 7 after infection, listed as 4C2",133.6 pg/mL
same,"inhibition of viral replication, as measured by p24 assay","HIV (strain NL4-3); at the concentration tested (5 uM), FIG. 1",≥ 95%
same,inhibition of host cell replication,HuT78 cells; 5 uM,no apparent inhibition of host cell replication
same,effect on cell replication,"HuT78 cells; 100 uM, separate experiments",no significant detrimental effect on cell replication
same,specificity of TAR binding compared with yeast tRNA binding,yeast tRNA,specificity of binding has also been confirmed
same,specificity for binding to the functional TAR fragment relative to the TAR variant,[2],specificity comparable to the wild type basic domain
"CC(=O)N[C@H](CCCNC(=N)N)C(=O)N[C@H](CCCCN)C(=O)N[C@H](CCCCN)C(=O)N[C@H](CCCNC(=N)N)C(=O)N[C@H](CCCNC(=N)N)C(=O)N[C@H](CCC(N)=O)C(=O)N[C@H](CCCNC(=N)N)C(=O)N[C@H](CCCNC(=N)N)C(=O)N[C@H](CCCNC(=N)N)C(N)=O [4G, acetyl-[D-(Arg--Lys--Lys--Arg--Arg--Gln--Arg--Arg--Arg)]--NH2]",HIV inhibition / resistance to viral infection,HIV (strain NL4-3); 5 uM concentration,positive effects on HIV inhibition
same,PH Titers,"HIV (strain NL4-3); 7 Day Pretreatment, Day 4 after infection, listed as 4G1",312.1 pg/mL
same,PH Titers,"HIV (strain NL4-3); 7 Day Pretreatment, Day 4 after infection, listed as 4G2",336.1 pg/mL
same,PH Titers,"HIV (strain NL4-3); 7 Day Pretreatment, Day 7 after infection, listed as 4G1",371.5 pg/mL
same,PH Titers,"HIV (strain NL4-3); 7 Day Pretreatment, Day 7 after infection, listed as 4G2",446.8 pg/mL
same,PH Titers,"HIV (strain NL4-3); 24 Hrs Pretreatment, Day 4 after infection, listed as 4G1",340.9 pg/mL
same,PH Titers,"HIV (strain NL4-3); 24 Hrs Pretreatment, Day 4 after infection, listed as 4G2",356.9 pg/mL
same,PH Titers,"HIV (strain NL4-3); 24 Hrs Pretreatment, Day 7 after infection, listed as 4G1",721.1 pg/mL
same,PH Titers,"HIV (strain NL4-3); 24 Hrs Pretreatment, Day 7 after infection, listed as 4G2",851.8 pg/mL
Arg--Lys--Lys--Arg--Arg--Gln--Arg--Arg--Arg,tat antagonist activity,tat,Weak tat antagonist activity
